Results reported in PubChem BioAssay AID248 (DTP/NCI, 2004).
Values joined by “and” are separate entries in the source; they are usually repeats but may differ in a detail not shown here. Equal values may be shown once. Inconclusive results and toxic doses are left out. Rule as the data show it: active = T/C of 150% or more; inactive = T/C below 125%.

System: L1210 leukemia ip in BDF1 mice, survival T/C
Experiment: NCI In Vivo Anticancer Drug Screen. Data for tumor model L1210 Leukemia (intraperitoneal) in B6D2F1 (BDF1) mice
Conditions: endpoint: mean survival time, higher = longer survival
Summary of the method: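 Value reflects the ratio of survival in compound-treated mice to survival in vehicle-treated controls, with both groups carrying the same transplanted tumor.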

[1] = dose: 100.0 mg/kg/injection, schedule: Q01DX009 (ip), vehicle: Klucel (hydroxypropylcellulose) (HPC)
[2] = dose: 100.0 mg/kg/injection, schedule: Q04DX003 (ip), vehicle: Klucel (hydroxypropylcellulose) (HPC)
[3] = dose: 200.0 mg/kg/injection, schedule: Q01DX009 (ip), vehicle: Klucel (hydroxypropylcellulose) (HPC)
[4] = dose: 200.0 mg/kg/injection, schedule: Q04DX003 (ip), vehicle: Klucel (hydroxypropylcellulose) (HPC)
[5] = dose: 400.0 mg/kg/injection, schedule: Q04DX003 (ip), vehicle: Klucel (hydroxypropylcellulose) (HPC)
[6] = dose: 100.0 mg/kg/injection, schedule: Q01DX001 (ip), vehicle: carboxymethylcellulose (CMC)
[7] = dose: 200.0 mg/kg/injection, schedule: Q01DX001 (ip), vehicle: carboxymethylcellulose (CMC)
[8] = dose: 400.0 mg/kg/injection, schedule: Q01DX001 (ip), vehicle: carboxymethylcellulose (CMC)
[9] = dose: 100.0 mg/kg/injection, schedule: Q01DX009 (ip), vehicle: saline
[10] = dose: 100.0 mg/kg/injection, schedule: Q04DX003 (ip), vehicle: saline
[11] = dose: 200.0 mg/kg/injection, schedule: Q01DX009 (ip), vehicle: saline
[12] = dose: 200.0 mg/kg/injection, schedule: Q04DX003 (ip), vehicle: saline
[13] = dose: 400.0 mg/kg/injection, schedule: Q01DX009 (ip), vehicle: saline
[14] = dose: 400.0 mg/kg/injection, schedule: Q04DX003 (ip), vehicle: saline

Measured: T/C

O=C(NC(=S)N1CC1)c1ccccc1
inactive: dose: 100.0 mg/kg/injection, schedule: Q04DX002 (sc), vehicle: olive oil, sesame oil, peanut oil 100 % of control | dose: 200.0 mg/kg/injection, schedule: Q04DX002 (sc), vehicle: olive oil, sesame oil, peanut oil 103 % of control | dose: 400.0 mg/kg/injection, schedule: Q04DX002 (sc), vehicle: olive oil, sesame oil, peanut oil 100 % of control

Cc1cc(O)cc(=O)o1
inactive: [1] 97 % of control and 89 % of control | [2] 101 % of control and 86 % of control | [3] 95 % of control and 100 % of control | [4] 101 % of control and 103 % of control | dose: 400.0 mg/kg/injection, schedule: Q01DX009 (ip), vehicle: Klucel (hydroxypropylcellulose) (HPC) 94 % of control and 100 % of control | [5] 92 % of control and 102 % of control

CC1CN1P(=S)(N1CCCCC1)N1CC1C (stereo not drawn)
inactive: dose: 50.0 mg/kg/injection, schedule: Q01DX001 (ip), vehicle: carboxymethylcellulose (CMC) 102 % of control | [6] 91 % of control | [7] 91 % of control | [8] 105 % of control | dose: 600.0 mg/kg/injection, schedule: Q01DX001 (ip), vehicle: carboxymethylcellulose (CMC) 103 % of control | dose: 800.0 mg/kg/injection, schedule: Q01DX001 (ip), vehicle: carboxymethylcellulose (CMC) 101 % of control

Cc1ccc(S(=O)(=O)OC2C(=O)C(C)(C)CCC2(C)C)cc1 (stereo not drawn)
inactive: dose: 100.0 mg/kg/injection, schedule: Q04DX002 (ip), vehicle: Klucel (hydroxypropylcellulose) (HPC) 100 % of control | dose: 200.0 mg/kg/injection, schedule: Q04DX002 (ip), vehicle: Klucel (hydroxypropylcellulose) (HPC) 100 % of control | dose: 400.0 mg/kg/injection, schedule: Q04DX002 (ip), vehicle: Klucel (hydroxypropylcellulose) (HPC) 97 % of control

NC(=S)N/N=C/c1ccc(-c2ccccc2)cc1
inactive: dose: 25.0 mg/kg/injection, schedule: Q01DX009 (ip), vehicle: saline with Tween-80 103 % of control | dose: 50.0 mg/kg/injection, schedule: Q01DX009 (ip), vehicle: saline with Tween-80 113 % of control | [6] 97 % of control | dose: 100.0 mg/kg/injection, schedule: Q01DX009 (ip), vehicle: saline with Tween-80 100 % of control | [7] 103 % of control | [8] 101 % of control

CCC[CH2][Pb]([CH2]CCC)([CH2]CCC)[CH2]CCC
inactive: dose: 100.0 mg/kg/injection, schedule: Q04DX002 (ip), vehicle: saline with Tween-80 107 % of control | dose: 200.0 mg/kg/injection, schedule: Q04DX002 (ip), vehicle: saline with Tween-80 105 % of control | dose: 400.0 mg/kg/injection, schedule: Q04DX002 (ip), vehicle: saline with Tween-80 102 % of control

CN1C(=O)N(C)C(=O)C(O)(C2(O)C(=O)N(C)C(=O)N(C)C2=O)C1=O
inactive: dose: 9.38 mg/kg/injection, schedule: Q01DX001 (ip), vehicle: other 94 % of control | dose: 18.75 mg/kg/injection, schedule: Q01DX001 (ip), vehicle: other 94 % of control | dose: 37.5 mg/kg/injection, schedule: Q01DX001 (ip), vehicle: other 101 % of control

Cc1ccc(O)cn1
inactive: dose: 100.0 mg/kg/injection, schedule: Q04DX003 (ip), vehicle: saline with Tween-80 100 % of control | dose: 200.0 mg/kg/injection, schedule: Q04DX003 (ip), vehicle: saline with Tween-80 96 % of control | dose: 400.0 mg/kg/injection, schedule: Q04DX003 (ip), vehicle: saline with Tween-80 103 % of control

CCC(C)(CC(=O)O)CC(=O)O
inactive: [9] 107 % of control | [10] 93 % of control | [11] 93 % of control | [12] 90 % of control | [13] 96 % of control | [14] 92 % of control

CC1(C)/C(=C/c2ccccc2)C(=O)c2ccccc21
inactive: [9] 101 % of control | [10] 96 % of control | [11] 96 % of control | [12] 98 % of control | [13] 102 % of control | [14] 102 % of control

CC[N+](CC)(CC)CCCC[N+](CC)(CC)CC
inactive: dose: 12.5 mg/kg/injection, schedule: Q01DX009 (ip), vehicle: water 100 % of control | dose: 25.0 mg/kg/injection, schedule: Q01DX009 (ip), vehicle: water 96 % of control | dose: 50.0 mg/kg/injection, schedule: Q01DX009 (ip), vehicle: water 90 % of control

CC(c1ccccc1)n1ccnc1CC#N (stereo not drawn)
inactive: dose: 12.5 mg/kg/injection, schedule: Q01DX009 (ip), vehicle: saline 109 % of control and 88 % of control | dose: 12.5 mg/kg/injection, schedule: Q04DX002 (ip), vehicle: saline 91 % of control | dose: 25.0 mg/kg/injection, schedule: Q01DX001 (ip), vehicle: saline 100 % of control | dose: 25.0 mg/kg/injection, schedule: Q01DX009 (ip), vehicle: saline 107 % of control and 114 % of control | dose: 25.0 mg/kg/injection, schedule: Q04DX002 (ip), vehicle: saline 101 % of control and 105 % of control and 109 % of control | dose: 25.0 mg/kg/injection, schedule: Q04DX003 (ip), vehicle: saline 88 % of control | dose: 50.0 mg/kg/injection, schedule: Q01DX001 (ip), vehicle: saline 101 % of control | dose: 50.0 mg/kg/injection, schedule: Q01DX009 (ip), vehicle: saline 97 % of control and 98 % of control | dose: 50.0 mg/kg/injection, schedule: Q04DX002 (ip), vehicle: saline 95 % of control and 96 % of control and 102 % of control | dose: 50.0 mg/kg/injection, schedule: Q04DX003 (ip), vehicle: saline 93 % of control

[N-]=[N+]=CS(=O)(=O)c1ccccc1-c1ccccc1
inactive: [2] 104 % of control | [4] 103 % of control | [5] 95 % of control

Cc1ccc(NC(=O)OCCOc2ccc(Br)cc2)cc1[N+](=O)[O-]
inactive: [2] 94 % of control | [4] 90 % of control | [5] 94 % of control

Cc1ccc(S(=O)(=O)c2ccc(C)c([N+](=O)[O-])c2)cc1[N+](=O)[O-]
inactive: dose: 100.0 mg/kg/injection, schedule: Q01DX001 (ip), vehicle: Klucel (hydroxypropylcellulose) (HPC) 104 % of control | dose: 200.0 mg/kg/injection, schedule: Q01DX001 (ip), vehicle: Klucel (hydroxypropylcellulose) (HPC) 118 % of control | dose: 400.0 mg/kg/injection, schedule: Q01DX001 (ip), vehicle: Klucel (hydroxypropylcellulose) (HPC) 96 % of control

Cc1ccc(N=Nc2ccc(C)cc2NC(=O)Nc2cc(Cl)ccc2C)cc1
inactive: [1] 93 % of control | [3] 94 % of control

CNC(=O)Oc1ccc(C(=O)OCCO)cc1
inactive: dose: 100.0 mg/kg/injection, schedule: Q01DX001 (ip), vehicle: saline 90 % of control | dose: 200.0 mg/kg/injection, schedule: Q01DX001 (ip), vehicle: saline 88 % of control | dose: 400.0 mg/kg/injection, schedule: Q01DX001 (ip), vehicle: saline 88 % of control

C=CS(=O)(=O)CCCCCCCC
inactive: dose: 75.0 mg/kg/injection, schedule: Q01DX001 (ip), vehicle: saline 97 % of control | dose: 75.0 mg/kg/injection, schedule: Q04DX003 (ip), vehicle: other 92 % of control | dose: 150.0 mg/kg/injection, schedule: Q01DX001 (ip), vehicle: saline 89 % of control | dose: 150.0 mg/kg/injection, schedule: Q04DX003 (ip), vehicle: other 100 % of control | dose: 300.0 mg/kg/injection, schedule: Q01DX001 (ip), vehicle: saline 91 % of control | dose: 300.0 mg/kg/injection, schedule: Q04DX003 (ip), vehicle: other 89 % of control
